Values quoted from earlier work in patent US11420990B2, “Ruthenium complex containing alkynyl group, method of synthesizing the same and use thereof” (GUANGDONG PHARMACEUTICAL UNIVERSITY, priority 2018, dated 2022).

System: cancer cells
Settings: background statement

SMILES: [Ru+2].c1ccc(-c2ccccn2)nc1.c1ccc(-c2ccccn2)nc1.c1ccc2nc3c4cccnc4c4ncccc4c3nc2c1 [[Ru(bpy)2(dppz)]^2+]
- cytotoxicity to cancer cells (in words): insignificant cytotoxicity
